Experimental data as given in ChEMBL document CHEMBL4043296 (J Med Chem, 2018).
Converted amounts (≈) assume the structure as drawn.

Columns and labels:
[1] = Fraction unbound in mouse plasma at 0.5 uM by equilibrium dialysis method; format: ADME, cell-free
[2] = molecular target: D(3) dopamine receptor (Homo sapiens, UniProt P35462); assay: Displacement of [3H]N-methylspiperone from human dopamine D3 receptor expressed in HEK293 cell membranes after 1 hr by scintillation counting method
[3] = species on record: Homo sapiens; assay: Selectivity ratio of Ki for human dopamine D2 receptor to Ki for human dopamine D4 receptor
[4] = molecular target: T1, Alpha-1B adrenergic receptor (Homo sapiens, UniProt P35368); assay: Displacement of [3H]prazosin from human recombinant alpha-1B adrenergic receptor expressed in CHO cell membranes after 30 mins by liquid scintillation counting method
T1 sequence (P35368 whole entry): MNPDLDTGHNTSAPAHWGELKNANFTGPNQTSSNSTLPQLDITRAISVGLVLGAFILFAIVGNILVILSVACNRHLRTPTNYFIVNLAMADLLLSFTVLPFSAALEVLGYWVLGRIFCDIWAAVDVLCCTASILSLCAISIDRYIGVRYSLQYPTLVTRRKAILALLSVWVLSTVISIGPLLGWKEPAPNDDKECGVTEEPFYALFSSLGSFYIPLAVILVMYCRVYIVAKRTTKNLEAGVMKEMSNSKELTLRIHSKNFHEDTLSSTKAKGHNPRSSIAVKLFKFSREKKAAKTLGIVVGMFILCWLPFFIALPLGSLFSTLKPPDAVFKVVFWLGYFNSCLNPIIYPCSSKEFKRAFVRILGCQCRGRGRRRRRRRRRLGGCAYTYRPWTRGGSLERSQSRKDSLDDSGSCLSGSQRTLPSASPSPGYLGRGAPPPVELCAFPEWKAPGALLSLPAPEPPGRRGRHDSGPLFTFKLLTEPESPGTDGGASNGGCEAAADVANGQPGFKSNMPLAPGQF

[5] = molecular target: Sodium-dependent serotonin transporter (Rattus norvegicus, UniProt P31652); assay: Displacement of [3H]-citalopram from SERT in Sprague-Dawley rat midbrain after 60 mins by scintillation counting method
[6] = molecular target: T2, D(4) dopamine receptor (Homo sapiens, UniProt P21917); assay: Antagonist activity at human SP/Myc epitope-tagged dopamine D4 receptor expressed in HEK293T cells assessed as inhibition of dopamine-induced RLuc8-fused Galphai1 activation preincubated for 15 mins followed by dopamine induction measured after 2 mins by BRET assay; format: cell-based, HEK-293T
T2 sequence (P21917 whole entry): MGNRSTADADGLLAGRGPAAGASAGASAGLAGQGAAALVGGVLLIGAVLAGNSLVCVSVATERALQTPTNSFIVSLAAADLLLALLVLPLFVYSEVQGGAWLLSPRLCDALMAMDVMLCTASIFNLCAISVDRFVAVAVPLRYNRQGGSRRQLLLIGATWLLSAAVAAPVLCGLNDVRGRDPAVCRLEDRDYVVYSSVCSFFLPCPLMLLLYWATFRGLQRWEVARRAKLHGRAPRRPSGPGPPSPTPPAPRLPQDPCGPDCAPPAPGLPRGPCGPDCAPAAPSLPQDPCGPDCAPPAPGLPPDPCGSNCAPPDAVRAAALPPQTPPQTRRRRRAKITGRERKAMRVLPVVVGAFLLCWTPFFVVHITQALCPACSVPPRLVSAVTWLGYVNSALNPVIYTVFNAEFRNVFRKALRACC

[7] = molecular target: T2, D(4) dopamine receptor; assay: Antagonist activity at human SP/Myc epitope-tagged dopamine D4 receptor expressed in HEK293T cells assessed as inhibition of dopamine-induced mVenus-fused beta-arrestin2 recruitment preincubated for 15 mins followed by dopamine induction measured after 2 mins by BRET assay; format: cell-based, HEK-293T
[8] = molecular target: T3, Muscarinic acetylcholine receptor M4 (Homo sapiens, UniProt P08173); assay: Agonist activity at human SP/Myc epitope-tagged muscarinic M4 receptor expressed in HEK293T cells assessed as RLuc8-fused Galphaq activation after 2 mins by BRET assay; format: cell-based, HEK-293T
T3 sequence (P08173 whole entry): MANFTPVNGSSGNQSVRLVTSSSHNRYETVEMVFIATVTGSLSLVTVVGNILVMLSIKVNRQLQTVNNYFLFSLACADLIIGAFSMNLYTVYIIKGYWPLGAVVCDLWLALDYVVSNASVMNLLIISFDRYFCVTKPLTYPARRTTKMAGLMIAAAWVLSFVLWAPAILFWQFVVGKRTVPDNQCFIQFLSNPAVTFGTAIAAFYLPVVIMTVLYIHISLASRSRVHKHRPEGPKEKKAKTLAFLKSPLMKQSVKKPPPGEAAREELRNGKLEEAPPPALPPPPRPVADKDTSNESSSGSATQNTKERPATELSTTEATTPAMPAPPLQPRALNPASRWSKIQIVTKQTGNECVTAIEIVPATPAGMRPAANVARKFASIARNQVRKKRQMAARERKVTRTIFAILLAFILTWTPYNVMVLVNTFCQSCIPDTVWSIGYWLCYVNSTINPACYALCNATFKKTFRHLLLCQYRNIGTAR

[9] = molecular target: T4, Muscarinic acetylcholine receptor M4 (Homo sapiens) (UniProt P08173); assay: (§1) Antagonist activity at human SP/Myc epitope-tagged muscarinic M4 receptor expressed in HEK293T cells assessed as inhibition of carbachol-induced RLuc8-fused Galphaq activation preincubated for 15 mins followed by carbachol induction measured after 2 mins by BRET assay; format: cell-based; details: HEK-293T
T4 sequence (whole entry): T3 sequence (P08173 whole entry)

[10] = molecular target: T3, Muscarinic acetylcholine receptor M4; assay: as §1; format: cell-based, HEK-293T
[11] = molecular target: T4, Muscarinic acetylcholine receptor M4 (Homo sapiens); assay: (§2) Antagonist activity at human SP/Myc epitope-tagged muscarinic M4 receptor expressed in HEK293T cells assessed as inhibition of carbachol-induced mVenus-fused beta-arrestin2 recruitment preincubated for 15 mins followed by carbachol induction measured after 2 mins by BRET assay; format: cell-based; details: HEK-293T
[12] = molecular target: T3, Muscarinic acetylcholine receptor M4; assay: as §2; format: cell-based, HEK-293T
[13] = Kinetic solubility of the compound at pH 7.4 after 24 hrs by UPLC/UV/TOF-MS method; format: physicochemical; details: buffer, read-out: Kinetic_solubility
[14] = Fraction unbound in human plasma at 0.5 uM by equilibrium dialysis method; format: ADME, cell-free
[15] = Fraction unbound in mouse brain at 5 uM by equilibrium dialysis method; format: ADME, tissue-based
[16] = Cmax in CD1 mouse brain at 3 mg/kg, sc after 0.25 hrs by UPLC-MS analysis; format: ADME, organism-based; parameters: dose 3 mg/kg, route subcutaneous
[17] = Tmax in CD1 mouse brain at 3 mg/kg, sc by UPLC-MS analysis; format: ADME, organism-based
[18] = Tmax in CD1 mouse plasma at 3 mg/kg, sc by UPLC-MS analysis; format: ADME, organism-based
[19] = AUClast in CD1 mouse brain at 3 mg/kg, sc by UPLC-MS analysis; format: ADME, organism-based; parameters: dose 3 mg/kg, time 0 - last, route subcutaneous
[20] = AUClast in CD1 mouse plasma at 3 mg/kg, sc by UPLC-MS analysis; format: ADME, organism-based; parameters: dose 3 mg/kg, route subcutaneous, time 0 - last
[21] = Half life in CD1 mouse brain at 3 mg/kg, sc by UPLC-MS analysis; format: ADME, organism-based
[22] = Ratio of fAUC in CD1 mouse brain to fAUC in CD1 mouse plasma at 3 mg/kg, sc; format: ADME, organism-based; details: read-out: K(p,uu,brain)
[23] = tested on: Plasma; assay: fAUClast in CD1 mouse plasma at 3 mg/kg, sc by UPLC-MS analysis; format: ADME, organism-based; details: in vivo

Chain of D(3) dopamine receptor (P35462 whole entry): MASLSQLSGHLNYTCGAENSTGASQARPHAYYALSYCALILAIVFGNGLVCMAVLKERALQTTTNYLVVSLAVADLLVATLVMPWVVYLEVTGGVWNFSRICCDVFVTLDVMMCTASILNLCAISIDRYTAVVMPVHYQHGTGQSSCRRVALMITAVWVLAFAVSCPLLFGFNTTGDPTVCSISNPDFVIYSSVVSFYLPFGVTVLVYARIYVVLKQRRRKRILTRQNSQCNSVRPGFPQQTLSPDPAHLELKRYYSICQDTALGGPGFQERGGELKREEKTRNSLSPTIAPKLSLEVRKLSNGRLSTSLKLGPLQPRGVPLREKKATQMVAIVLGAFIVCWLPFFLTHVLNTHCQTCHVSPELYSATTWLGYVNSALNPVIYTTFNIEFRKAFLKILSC
Chain of Sodium-dependent serotonin transporter (P31652 whole entry, the tested form may be a part): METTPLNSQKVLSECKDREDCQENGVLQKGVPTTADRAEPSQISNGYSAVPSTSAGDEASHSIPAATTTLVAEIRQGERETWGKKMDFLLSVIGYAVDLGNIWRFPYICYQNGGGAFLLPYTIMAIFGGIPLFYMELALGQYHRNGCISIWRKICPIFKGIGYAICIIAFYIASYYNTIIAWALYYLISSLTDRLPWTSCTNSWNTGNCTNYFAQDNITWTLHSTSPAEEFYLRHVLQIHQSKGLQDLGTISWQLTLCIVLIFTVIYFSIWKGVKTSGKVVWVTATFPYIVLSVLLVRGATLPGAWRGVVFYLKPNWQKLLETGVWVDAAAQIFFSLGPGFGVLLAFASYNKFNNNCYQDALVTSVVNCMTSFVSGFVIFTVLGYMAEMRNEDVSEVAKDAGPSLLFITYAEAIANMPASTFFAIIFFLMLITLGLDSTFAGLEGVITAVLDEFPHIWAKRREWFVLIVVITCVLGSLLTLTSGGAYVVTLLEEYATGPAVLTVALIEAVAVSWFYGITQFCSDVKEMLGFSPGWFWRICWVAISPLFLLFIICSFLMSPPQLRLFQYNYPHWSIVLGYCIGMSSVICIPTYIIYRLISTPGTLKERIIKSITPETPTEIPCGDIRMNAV

O=C1CCc2ccccc2N1CCCN1CCC(Cc2ccccc2)CC1 gave a fraction unbound at 0.5 µM [1] of 0.1, a Ki [2] of 1820 nM and a Ratio Ki [3] of 724. For the same compound, the Ki [4] was 224 nM, the Ki [5] was 46.8 nM and the IC50 [6] was 170 nM. It also gave an IC50 [7] of 575 nM, an EC50 [8] of 148 nM and an Imax [9] of 66%. The IC50 [10] was 8510 nM, the Imax [11] was 72% and the IC50 [12] was 1230 nM. It also gave a solubility kinetic at 24 h [13] of 477 µM (≈ 173 µg/mL), a fraction unbound at 0.5 µM [14] of 0.057 and a fraction unbound at 5 µM [15] of 0.051.

O=C1CCc2ccccc2N1CCCN1CCN(c2ccccc2)CC1 showed a fraction unbound at 0.5 µM [1] of 0.097, a Ki [2] of 1320 nM and a Ratio Ki [3] of 380. It also gave a Ki [4] of 74.1 nM, a Ki [5] of 5010 nM and an IC50 [6] of 9.77 nM. The IC50 [7] was 0.724 nM, the EC50 [8] was 589 nM and the Imax [11] was 74%. The IC50 [12] was 12000 nM, the solubility kinetic at 24 h [13] was 520 µM (≈ 182 µg/mL) and the fraction unbound at 0.5 µM [14] was 0.033. The fraction unbound at 5 µM [15] was 0.086, the Cmax [16] was 2050 ng/g and the Tmax [17] was 15 min. It also gave a Tmax [18] of 15 min, an AUC(0-t) [19] of 2380 ng·h/mL and an AUC(0-t) [20] of 518 ng·h/mL. The half-life [21] was 55.8 min, the Kp uu [22] was 4.05 and the fAUClast [23] was 50.5 ng·h/mL.
